Assay results reported in patent publication US10494380B2, “Nitrogen-containing tricyclic derivatives having HIV replication inhibitory activity” (priority 2015, dated 2019).
Read-outs that look alike come from different tables or passages of the source.

Assays:
HIV = type: cell-based; conditions: EC50 in the presence of human serum (25%) versus without human serum, MT-4 cells
Method in brief: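 HIV-infected MT-4 cells (3×10^4/well, infected 1 h at 37° C) are grown 4 days with compound that was first mixed 1 h with human serum or with medium only. Potency shift is the EC50 with serum divided by the EC50 without serum.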

[1] = tested on: sheep red blood cells (RBC); assay: Photohemolysis test (Test Example 13); type: cell-based; conditions: 0.0008 to 0.1 w/v %, 10 J/cm2 UV-irradiation (290-400 nm)
Method in brief: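 Sheep RBC suspension (2.5 v/v %) with compound at 0.0008–0.1 w/v % exposed to 10 J/cm2 UV-A/UV-B (290–400 nm), then centrifuged. Supernatant absorbance at 540 nm gave photohemolysis index (PI) and at 630 nm met-Hb formation. Negative if PI<10% and 630 nm change <0.05; otherwise positive.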

HIV (HTLV-IIIB strain) = assay: HIV replication inhibition assay (Test Example 1; MT-4 cells, MTT); type: cell-based; conditions: HIV (HTLV-IIIB strain), MT-4 cells, MTT, four days; for EC50: read-out: EC50; for EC90: read-out: EC90
Method in brief: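 MT-4 cells (2.5×10^4/well) were infected with HIV HTLV-IIIB (60 pfu) in the presence of compound and cultured 4 days at 37 °C. Cell viability was read by MTT reduction (OD 560/690 nm). EC50 and EC90 are the concentrations inhibiting virus-induced cytotoxicity by 50% and 90%.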

[2] = tested on: T125A mutant virus (HIV-1 NL-432 recombinant molecular clone, IN gene); assay: HIV replication inhibition assay against integrase 124/125 mutant virus (Test Example 2); type: cell-based
Method in brief: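 EC50 is the compound concentration blocking half of virus-induced cell death, measured by MTT (OD 560 nm, 690 nm reference) after 4 days at 37 °C. Integrase 124/125 mutant NL-432 virus from transfected 293T cells (60 pfu) was added to 2.5×10^4 MT-4 cells with compound.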

CYP2C9 = CYP2C9 (Homo sapiens (Human), UniProt P11712); assay: CYP inhibition assay, tolbutamide methyl-hydroxylation (Test Example 4); type: in vitro ADME; conditions: pooled human hepatic microsome, 100 μmol/L tolbutamide, 15 minutes, 37° C.
Method in brief: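 Pooled human liver microsomes (0.2 mg protein/mL) with 100 µmol/L tolbutamide in 50 mmol/L HEPES, test compound at 1, 5, 10, 20 µmol/L; NADPH-started, 15 min at 37 °C. Hydroxytolbutamide quantified by LC/MS/MS to assess inhibition of metabolite formation.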

CYP3A4 = CYP3A4 (Homo sapiens (Human), UniProt P08684); assay: CYP3A4 (MDZ) MBI test (Test Example 6); conditions: pooled human liver microsomes, midazolam 1-hydroxylation, preincubation 0 or 30 min
[3] = Human immunodeficiency virus 1, MT4, 96 h
[4] = T125A mutant virus (HIV-1 NL-432 IN gene), MT-4 cells, MTT, read-out: EC50 against T125A mutant virus

Sequence of CYP3A4 (P08684 whole entry): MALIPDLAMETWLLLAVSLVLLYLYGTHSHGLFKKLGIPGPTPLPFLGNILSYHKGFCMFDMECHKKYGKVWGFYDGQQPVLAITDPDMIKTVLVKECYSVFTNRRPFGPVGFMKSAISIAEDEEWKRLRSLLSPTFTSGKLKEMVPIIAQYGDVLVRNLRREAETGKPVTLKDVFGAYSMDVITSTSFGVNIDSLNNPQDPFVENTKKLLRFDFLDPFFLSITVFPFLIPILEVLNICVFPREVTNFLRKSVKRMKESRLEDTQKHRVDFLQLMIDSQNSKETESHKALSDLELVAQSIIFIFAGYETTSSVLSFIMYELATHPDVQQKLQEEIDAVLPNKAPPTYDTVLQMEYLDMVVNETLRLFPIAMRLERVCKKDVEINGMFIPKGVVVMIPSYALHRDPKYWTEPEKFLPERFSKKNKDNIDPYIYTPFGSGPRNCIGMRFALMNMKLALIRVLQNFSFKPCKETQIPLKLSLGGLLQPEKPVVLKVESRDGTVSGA
Sequence of CYP2C9 (P11712 whole entry): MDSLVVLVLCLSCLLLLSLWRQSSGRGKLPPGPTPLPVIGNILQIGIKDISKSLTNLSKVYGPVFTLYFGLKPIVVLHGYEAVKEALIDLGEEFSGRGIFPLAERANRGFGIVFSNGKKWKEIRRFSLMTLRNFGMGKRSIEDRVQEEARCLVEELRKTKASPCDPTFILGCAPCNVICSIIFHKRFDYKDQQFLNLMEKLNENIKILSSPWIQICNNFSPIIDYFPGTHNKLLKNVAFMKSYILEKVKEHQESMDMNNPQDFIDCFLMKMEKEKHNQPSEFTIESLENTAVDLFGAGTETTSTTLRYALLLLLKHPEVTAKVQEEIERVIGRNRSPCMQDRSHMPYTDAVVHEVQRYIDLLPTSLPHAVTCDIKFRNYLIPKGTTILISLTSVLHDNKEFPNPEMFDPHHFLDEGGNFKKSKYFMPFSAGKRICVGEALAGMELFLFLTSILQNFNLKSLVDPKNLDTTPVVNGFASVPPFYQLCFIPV

| Structure (SMILES) | Potency shift value (HIV) | Photohemolysis test, potential of phototoxicity (PI and met-Hb) [1] | EC50 (HIV (HTLV-IIIB strain); [3]) [nM] | EC90 (HIV (HTLV-IIIB strain); [3]) [nM] | EC50 ([2]; Human immunodeficiency virus 1, MT4, read-out: EC50 against T125A mutant virus, T125A mutant virus (HIV-1 NL-432 IN gene), MT-4 cells, MTT) [nM] | IC50 (CYP2C9) [nM] | CYP3A4 (MDZ) MBI, shifted IC (CYP3A4) | EC50 (HIV (HTLV-IIIB strain)) [nM] | EC90 (HIV (HTLV-IIIB strain)) [nM] | EC50 [2, 4] [nM] |
| --- | --- | --- | --- | --- | --- | --- | --- | --- | --- | --- |
| Cc1ccc(-c2c([C@H](OC(C)(C)C)C(=O)O)c(C)c3c4c2cc(C)n4CCN3c2nc3c(s2)CN(C)CC3)cc1 [Compound I-293] | 4.8 | (−) (negative criteria (−), PI<10% and changes in absorbance at 630 nm<0.05, respectively) | 3.1 | 5.5 | 9.3 | > 20000 | (−) (When a shifted IC was 1.0 or less, this was defined as negative) |  |  |  |
| Cc1ccc(-c2c([C@H](OC(C)(C)C)C(=O)O)c(C)c3c4c2cc(C)n4CCN3c2ccc(N3CCCC3=O)nn2)cc1 [Compound I-303] | 15 | (−) (negative criteria (−), PI<10% and changes in absorbance at 630 nm<0.05, respectively) |  |  |  | > 20000 | (−) (When a shifted IC was 1.0 or less, this was defined as negative) | 1.5 | 4 | 4.3 |
| Cc1ccc(-c2c([C@H](OC(C)(C)C)C(=O)O)c(C)c3c4c2cc(C)n4CCN3c2ncc(CN(C)C)cn2)cc1 [Compound I-304] | 6.8 | (−) (negative criteria (−), PI<10% and changes in absorbance at 630 nm<0.05, respectively) |  |  |  | > 20000 | (−) (When a shifted IC was 1.0 or less, this was defined as negative) | 4.1 |  | 7.2 |
| Cc1ccc(-c2c([C@H](OC(C)(C)C)C(=O)O)c(C)c3c4c2cc(C)n4CCN3c2ncc(CCN3CCCCC3)cn2)cc1 [Compound I-305] | 3.6 | (−) (negative criteria (−), PI<10% and changes in absorbance at 630 nm<0.05, respectively) |  |  |  | > 20000 | (−) (When a shifted IC was 1.0 or less, this was defined as negative) | 3.7 | 4.9 | 12 |
| Cc1ccc(-c2c([C@H](OC(C)(C)C)C(=O)O)c(C)c3c4c2cc(C)n4CCN3c2ncc(CN3CCCCC3)cn2)cc1 [Compound I-308] | 11 | (−) (negative criteria (−), PI<10% and changes in absorbance at 630 nm<0.05, respectively) |  |  |  | > 20000 | (−) (When a shifted IC was 1.0 or less, this was defined as negative) | 1.6 | 4.8 | 4.3 |
| Cc1ccc(-c2c([C@H](OC(C)(C)C)C(=O)O)c(C)c3c4c2cc(C)n4CCN3c2ncc(CCN3CCOCC3)cn2)cc1 [Compound I-309] | 13 | (−) (negative criteria (−), PI<10% and changes in absorbance at 630 nm<0.05, respectively) |  |  |  | > 20000 | (−) (When a shifted IC was 1.0 or less, this was defined as negative) | 2.2 | 1.5 | 4.7 |
